Data as given in patent publication US20070149546A1, “4-Anilino-quinazoline derivatives as antiproliferative agents” (priority 2003, published 2007).
Counter-ions that a name gives are not always drawn.

Assays:
EGFR kinase = target: T1, EGFR kinase (Homo sapiens, UniProt P00533); experiment: Protein tyrosine kinase phosphorylation assay, Test (a): EGFR; format: biochemical; conditions: inhibition of phosphorylation of a tyrosine containing polypeptide substrate by EGFR kinase; ATP at Km
T1 construct: Recombinant intracellular fragments of EGFR and erbB2; made in house; host or cells: baculovirus/Sf21 insect cells
Experimental: (§1) This test measures the ability of a test compound to inhibit the phosphorylation of a tyrosine containing polypeptide substrate by an enzyme selected from the EGFR kinase and erbB2 kinase.
(§2) Recombinant intracellular fragments of EGFR and erbB2 (accession numbers X00588 and X03363 respectively) were cloned and expressed in the baculovirus/Sf21 system. Lysates were prepared from these cells by treatment with ice-cold lysis buffer (20 mM N-2-hydroxyethylpiperizine-N′-2-ethanesulfonic acid (HEPES) pH 7.5, 150 mM NaCl, 10% glycerol, 1% Triton X-100, 1.5 mM MgCl2, 1 mM ethylene glycol-bis(β-aminoethyl ether) N′,N′,N′,N′-tetraacetic acid (EGTA), plus protease inhibitors and then cleared by centrifugation.
(§3) Constitutive kinase activity of these recombinant proteins was determined by their ability to phosphorylate a synthetic peptide (made up of a random co-polymer of Glutamic Acid, Alanine and Tyrosine in the ratio of 6:3:1). Specifically, Maxisorb™ 96-well immunoplates were coated with synthetic peptide (0.2 μg of peptide in a 200 μl phosphate buffered saline (PBS) solution and incubated at 4° C. overnight). Plates were washed in 50 mM HEPES pH 7.4 at room temperature to remove any excess unbound synthetic peptide. […] Reactions were terminated by the removal of the liquid components of the assay followed by washing of the plates with PBS-T (phosphate buffered saline with 0.5% Tween 20).
(§4) The immobilised phospho-peptide product of the reaction was detected by immunological methods. Firstly, plates were incubated for 90 minutes at room temperature with anti-phosphotyrosine primary antibodies that were raised in the mouse (4G10 from Upstate Biotechnology). Following extensive washing, plates were treated with Horseradish Peroxidase (HRP) conjugated sheep anti-mouse secondary antibody (NXA931 from Amersham) for 60 minutes at room temperature. After further washing, HRP activity in each well of the plate was measured colorimetrically using 22′-Azino-di-[3-ethylbenzthiazoline sulfonate (6)] diammonium salt crystals (ABTS™ from Roche) as a substrate.
(§5) Kinase inhibition for a given compound was expressed as an IC50 value. […] The range of phosphorylation was calculated from the positive (vehicle plus ATP) and negative (vehicle minus ATP) control values.

erbB2 [1] = target: T2, erbB2 (Homo sapiens, UniProt P04626); experiment: Protein tyrosine kinase phosphorylation assay, Test (a): erbB2; format: biochemical; design: Recombinant intracellular fragments of EGFR and erbB2; made in house; host or cells: baculovirus/Sf21 insect cells; conditions: inhibition of phosphorylation of a tyrosine containing polypeptide substrate by erbB2 kinase; ATP at Km
Experimental: as §1, §2, §3, §4, §5
Target sequence in this assay (P04626 676-1255 limits assumed): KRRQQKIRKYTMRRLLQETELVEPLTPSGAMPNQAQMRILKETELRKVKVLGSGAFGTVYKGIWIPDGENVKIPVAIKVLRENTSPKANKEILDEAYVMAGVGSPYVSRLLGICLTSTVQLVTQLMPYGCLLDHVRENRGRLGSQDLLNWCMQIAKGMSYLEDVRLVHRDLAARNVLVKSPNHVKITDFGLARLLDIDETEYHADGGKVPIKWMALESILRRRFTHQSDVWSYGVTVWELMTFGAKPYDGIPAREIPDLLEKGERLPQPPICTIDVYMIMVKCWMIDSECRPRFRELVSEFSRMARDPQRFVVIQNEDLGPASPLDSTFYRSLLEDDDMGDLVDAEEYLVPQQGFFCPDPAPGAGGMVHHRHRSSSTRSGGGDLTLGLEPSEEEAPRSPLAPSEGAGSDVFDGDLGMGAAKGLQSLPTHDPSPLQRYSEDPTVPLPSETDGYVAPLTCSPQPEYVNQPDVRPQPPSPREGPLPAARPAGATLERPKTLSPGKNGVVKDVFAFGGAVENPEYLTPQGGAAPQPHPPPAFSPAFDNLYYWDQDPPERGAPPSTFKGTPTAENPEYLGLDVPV

erbB2 [2] = target: T2, erbB2; experiment: Clone 24 phospho-erbB2 cell assay, Test (e); format: cell-based; design: a cell line that overexpresses full length wild type erbB2 protein; expressed in transfected cells; host or cells: MCF7 (breast carcinoma) derived Clone 24 cells; conditions: inhibition of phosphorylation of erbB2 in a MCF7 (breast carcinoma) derived cell line (Clone 24)
Experimental: The cells were resuspended in Growth Medium.
3 days later, Growth Medium was removed from the wells and replaced with 100 ul Assay Medium (phenol red free DM , 2 mM glutamine, 1.2 mg/ml G418) either with or without erbB inhibitor compound. Plates were returned to the incubator for 4 hours and then 20 μl of 20% formaldehyde solution in PBS was added to each well and the plate was left at room temperature for 30 minutes. This fixative solution was removed with a multichannel pipette, 100 μl of PBS was added to each well and then removed with a multichannel pipette and then 50 μl PBS was added to each well. Plates were then sealed and stored for up to 2 weeks at 4° C.
Immunostaining was performed at room temperature. Wells were washed once with 200 μl PBS/Tween 20 (made by adding 1 sachet of PBS/Tween dry powder (Sigma, No. P3563) to 1 L of double distilled H2O) using a plate washer then 200 μl Blocking Solution (5% Marvel dried skimmed milk (Nestle) in PBS/Tween 20) was added and incubated for 10 minutes. Blocking Solution was removed using a plate washer and 200 μl of 0.5% Triton X-100/PBS was added to permeabalise the cells. After 10 minutes, the plate was washed with 200μl PBS/Tween 20 and then 200 μl Blocking Solution was added once again and incubated for 15 minutes. […] Then this primary antibody solution was removed from the wells using a plate washer followed by two 200 μl PBS/Tween 20 washes using a plate washer. […] From now onwards, wherever possible, plates were protected from light exposure, at this stage by sealing with black backing tape. The plates were incubated for 45 minutes and then the secondary antibody solution was removed from the wells followed by two 200 ul PBS/Tween 20 washes using a plate washer. Then 100 μl PBS was added to each plate, incubated for 10 minutes and then removed using a plate washer. Then a further 100 μl PBS was added to each plate and then, without prolonged incubation, removed using a plate washer. Then 50 μl of PBS was added to each well and plates were resealed with black backing tape and stored for up to 2 days at 4° C. before analysis.
The Fluorescence signal is each well was measured using an Acumen Explorer Instrument (Acumen Bioscience Ltd.), a plate reader that can be used to rapidly quantitate features of images generated by laser-scanning. The instrument was set to measure the number of fluorescent objects above a pre-set threshold value and this provided a measure of the phosphorylation status of erbB2 protein. Fluorescence dose response data obtained with each compound was exported into a suitable software package (such as Origin) to perform curve fitting analysis. Inhibition of erbB2 phosphorylation was expressed as an IC50 value.
Target sequence in this assay (P04626 23-1255): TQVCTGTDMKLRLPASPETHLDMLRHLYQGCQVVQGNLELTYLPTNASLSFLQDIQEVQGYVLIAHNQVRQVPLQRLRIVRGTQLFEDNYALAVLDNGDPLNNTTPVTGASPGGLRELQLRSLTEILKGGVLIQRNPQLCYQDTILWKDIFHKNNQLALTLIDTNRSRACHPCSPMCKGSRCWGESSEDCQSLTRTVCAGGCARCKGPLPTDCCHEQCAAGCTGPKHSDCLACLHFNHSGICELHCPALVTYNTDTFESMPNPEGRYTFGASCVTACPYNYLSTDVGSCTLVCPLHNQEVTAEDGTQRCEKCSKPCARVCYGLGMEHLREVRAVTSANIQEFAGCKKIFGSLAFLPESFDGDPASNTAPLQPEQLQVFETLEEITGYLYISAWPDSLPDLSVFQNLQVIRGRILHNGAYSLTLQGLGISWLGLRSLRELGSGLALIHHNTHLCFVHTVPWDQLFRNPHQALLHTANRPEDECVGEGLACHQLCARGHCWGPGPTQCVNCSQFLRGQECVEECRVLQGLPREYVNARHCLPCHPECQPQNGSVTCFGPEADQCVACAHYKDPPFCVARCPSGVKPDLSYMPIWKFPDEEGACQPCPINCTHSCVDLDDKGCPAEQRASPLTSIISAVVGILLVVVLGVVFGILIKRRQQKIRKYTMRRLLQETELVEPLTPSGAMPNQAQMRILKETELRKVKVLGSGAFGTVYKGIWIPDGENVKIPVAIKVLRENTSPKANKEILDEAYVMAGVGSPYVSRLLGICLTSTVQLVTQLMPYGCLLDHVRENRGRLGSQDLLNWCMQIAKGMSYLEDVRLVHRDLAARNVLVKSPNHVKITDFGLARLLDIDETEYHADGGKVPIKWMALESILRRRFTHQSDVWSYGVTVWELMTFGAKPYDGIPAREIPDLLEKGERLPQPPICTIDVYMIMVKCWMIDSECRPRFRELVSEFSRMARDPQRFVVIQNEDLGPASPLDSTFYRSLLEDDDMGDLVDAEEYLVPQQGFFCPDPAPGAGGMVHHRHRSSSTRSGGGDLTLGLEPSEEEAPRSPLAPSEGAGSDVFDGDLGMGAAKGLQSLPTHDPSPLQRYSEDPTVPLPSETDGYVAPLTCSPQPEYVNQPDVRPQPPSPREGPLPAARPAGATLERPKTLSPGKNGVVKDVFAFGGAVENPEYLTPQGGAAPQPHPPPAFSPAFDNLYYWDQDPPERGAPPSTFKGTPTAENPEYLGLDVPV

T1 sequence (P00533 669-1210 limits assumed): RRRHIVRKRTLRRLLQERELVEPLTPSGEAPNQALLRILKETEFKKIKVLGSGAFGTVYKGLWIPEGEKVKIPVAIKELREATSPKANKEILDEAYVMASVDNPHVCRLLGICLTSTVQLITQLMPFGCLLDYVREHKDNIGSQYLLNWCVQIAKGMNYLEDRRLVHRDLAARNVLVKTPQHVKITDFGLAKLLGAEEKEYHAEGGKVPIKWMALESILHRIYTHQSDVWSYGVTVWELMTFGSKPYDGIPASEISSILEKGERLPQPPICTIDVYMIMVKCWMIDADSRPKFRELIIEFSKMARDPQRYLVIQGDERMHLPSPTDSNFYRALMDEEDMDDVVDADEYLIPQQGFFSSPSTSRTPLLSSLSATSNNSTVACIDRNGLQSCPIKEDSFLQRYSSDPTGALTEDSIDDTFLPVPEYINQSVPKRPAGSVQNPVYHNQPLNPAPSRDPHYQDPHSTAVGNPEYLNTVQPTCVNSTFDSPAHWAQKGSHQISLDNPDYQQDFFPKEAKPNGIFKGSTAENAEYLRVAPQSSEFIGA

SMILES: C[C@H](CN(C)C)Oc1cccc2ncnc(Nc3ccc(Sc4nccn4C)c(Cl)c3)c12 [Example 53, N-{3-Chloro-4-[(1-methyl-1H-imidazol-2-yl)thio]phenyl}-5-[(1R)-2-(dimethylamino)-1-methylethoxy]quinazolin-4-amine dihydrochloride]
- IC50 (EGFR kinase): 0.064 µM
- IC50 (erbB2 [1]): 0.005 µM
- IC50 (erbB2 [2]): 0.001 µM

SMILES: COc1cc(Nc2ncnc3cccc(OCCN(C)C)c23)ccc1OCc1cc(C)on1 [Example 37, 5-[2-(Dimethylamino)ethoxy]-N-{3-methoxy-4-[(5-methylisoxazol-3-yl)methoxy]phenyl}quinazolin-4-amine]
- IC50 (EGFR kinase): 8.4 µM
- IC50 (erbB2 [1]): 0.017 µM
- IC50 (erbB2 [2]): 0.003 µM

SMILES: CN(C)CC(C)(C)Oc1cccc2ncnc(Nc3ccc(OCc4ccccn4)c(Cl)c3)c12 [Example 56, N-[3-Chloro-4-(pyridin-2-ylmethoxy)phenyl]-5-[2-(dimethylamino)-1,1-dimethylethoxy]quinazolin-4-amine]
- IC50 (EGFR kinase): 0.49 µM
- IC50 (erbB2 [1]): 0.002 µM
- IC50 (erbB2 [2]): 0.002 µM

SMILES: C[C@H](CN(C)C)Oc1cccc2ncnc(Nc3ccc(OCc4cscn4)c(Cl)c3)c12 [Example 23]
- IC50 (EGFR kinase): 0.068 µM
- IC50 (erbB2 [1]): 0.002 µM
- IC50 (erbB2 [2]): 0.001 µM

SMILES: COc1cc(Nc2ncnc3cccc(OC(C)CN(C)C)c23)ccc1Oc1ccccc1 (stereo not drawn) [Example 54, 5-[2-(Dimethylamino)-1-methylethoxy]-N-(3-methoxy-4-phenoxyphenyl)quinazolin-4-amine]
- IC50 (EGFR kinase): 4.3 µM
- IC50 (erbB2 [1]): 0.002 µM
- IC50 (erbB2 [2]): 0.003 µM
